The values that follow come from US4590203A, “Derivatives of thiophene-2-carboxylic acid and their pharmaceutically acceptable acid or base addition salts and use in treatment of conditions caused by thromboxane A2” (Laevosan-Gesellschaft m.b.H. & Co. KG, priority 1982, dated 1986).

One test addresses T1, thromboxane synthetase (Homo sapiens, UniProt P24557).
T1 construct: thrombin stimulated human washed platelets; endogenous in cells; host or cells: human washed platelets
T1 sequence (P24557 1-533): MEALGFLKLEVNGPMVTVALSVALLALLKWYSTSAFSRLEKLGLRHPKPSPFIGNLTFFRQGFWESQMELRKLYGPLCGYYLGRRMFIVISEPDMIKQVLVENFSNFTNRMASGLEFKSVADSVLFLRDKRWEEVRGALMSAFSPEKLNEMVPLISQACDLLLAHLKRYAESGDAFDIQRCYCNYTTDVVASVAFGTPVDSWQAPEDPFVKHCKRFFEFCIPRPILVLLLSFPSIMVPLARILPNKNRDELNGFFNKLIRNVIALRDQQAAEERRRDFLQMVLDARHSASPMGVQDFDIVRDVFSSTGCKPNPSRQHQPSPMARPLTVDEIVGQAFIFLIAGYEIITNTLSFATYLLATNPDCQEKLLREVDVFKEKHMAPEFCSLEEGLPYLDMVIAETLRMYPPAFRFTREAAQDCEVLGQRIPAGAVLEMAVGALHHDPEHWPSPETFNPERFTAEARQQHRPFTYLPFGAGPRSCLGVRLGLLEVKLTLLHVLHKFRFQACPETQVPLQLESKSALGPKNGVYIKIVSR
Kind of test: inhibition of thromboxane (TX) formation in thrombin stimulated washed platelets, TXB2 specific radioimmunoassay. It counts as cell-based. To be noted: for IC50: 0,6 IU/ml thrombin stimulated human washed platelets, TXB2 specific radioimmunoassay; for inhibition of TXB2-formation: concentration not given; for specificity as inhibitor of thromboxane synthetase: in vitro-study, inhibition of TX formation on platelet aggregation. The method, then:
(§1) In 0,6 IU/ml thrombin stimulated human washed platelets the IC50 (μM) for inhibition of TX formation (measured by TXB2 specific radioimmunoassay) was 1,1 for LG 82-4-00 and 1,3 for LG 82-4-01. The two substances inhibited TXB2 -formation and 1-2 μg/ml collagen induced platelet aggregation by more than 95%.

The test system of test [1] is platelet aggregation. Description: proaggregatory activity and primary wave ADP aggregation. It counts as cell-based. An excerpt:
Neither LG 82-4-00 nor LG 82-4-01 had vasoconstrictor, proaggregatory or antagonistic activity or affected primary wave ADP aggregation (P >0,05).

The subject of test [2] is platelet aggregation. Description: collagen induced platelet aggregation. The test is classed as cell-based, human. Particulars: 1-2 μg/ml collagen; concentration not given. The method, then: as §1

For orientation: IC50 means the concentration needed to halve the response being measured. Consider `Cl.O=C(O)c1ccc(OCCn2ccnc2)s1` [LG 82-4-00, 5-[2-(1-Imidazolyl)-1-ethoxy]thiophene-2-carboxylic acid hydrochloride], for which, at thromboxane synthetase, the IC50 amounted to 1.1 µM, the “inhibition of TXB2-formation” value is “more than 95%” and the “specificity as inhibitor of thromboxane synthetase” value is on record as “specific inhibitors of thromboxane synthetase”. Also, the proaggregatory activity entry in the test with platelet aggregation [1] was “Neither”. Also, the “inhibition of collagen induced platelet aggregation” value in the test with platelet aggregation [2] is recorded as “more than 95%”.

In the case of `Cl.O=C(O)c1cc(Cl)c(OCCn2ccnc2)s1` [LG 82-4-01, 4-Chloro-5-[2-(1-imidazolyl)-1-ethoxy]-thiophene-2-carboxylic acid hydrochloride], at thromboxane synthetase, the IC50 stood at 1.3 µM, the “inhibition of TXB2-formation” value was “more than 95%” and the “specificity as inhibitor of thromboxane synthetase” value is “specific inhibitors of thromboxane synthetase”. Besides, the proaggregatory activity entry in the test on platelet aggregation [1] was “Neither”. In addition, in the test with platelet aggregation [2], the “inhibition of collagen induced platelet aggregation” value was “more than 95%”.
